What was measured:
[1] = test system: MCF7; assay: In vitro cell proliferation assay (WST.1, Table 5); type: cell-based; settings: Homo sapiens, 72 h; MCF7, day 3
Experimental: (§1) These cell lines were grown in Iscove's MDM supplemented with 5% fetal calf serum (FCS), 50 μM 2-mercaptoethanol, 100 μg/ml penicillin, and 100 μg/ml streptomycin. Cell lines growing in suspension were maintained at 0.5-1.5×10^6 cell/ml, while adherent cell lines were maintained at subconfluent densities.
(§2) Cell lines were seeded in triplicate at 10^4 cells/100 μl in 96-well plates. Peripheral blood mononuclear cells were seeded in triplicate at 10^5 cells/100 μl in 96-well plate. Different test compounds were added immediately at final concentrations ranging between 0 to 100 μM. All compounds were dissolved in sterile deionized water, so water was added to the control wells. On day 3, WST.1 assay (Roche) was used to measure the effect of different test compounds on cell growth. WST.1 assay is a calorimetric assay for the nonradioactive quantification of cell proliferation, cell viability, and cytotoxicity. The assay was performed according to manufacturer's instructions (Roche). It relies on the cleavage by cellular enzymes of WST.1 (water soluble tetrazolium salt: 4-[3-(4-iodophenyl)-2-(4-nitrophenyl)-2H-5-tetrazolio]-1,3-benzene disulfonate) to formazan. The amount of formazan dye formed correlates to the number of metabolically active cells in the culture and is readily read in an ELISA microplate reader using an absorbance wavelength of 440 nm. These OD values are plotted against concentrations of different compounds and IC50 is determined for each compound.

[2] = test system: MDA468; assay: In vitro cell proliferation assay (WST.1, Table 5); type: cell-based; settings: Homo sapiens, 72 h; MDA468, day 3
Experimental: as §1, §2

[3] = test system: OCI-AML-1; assay: In vitro cell proliferation assay (WST.1, Table 5); type: cell-based; settings: Homo sapiens, 72 h; OCI-AML-1, day 3
Experimental: as §1, §2

[4] = test system: OCI-Ly-7; assay: In vitro cell proliferation assay (WST.1, Table 5); type: cell-based; settings: Homo sapiens, OCI-Ly7, 72 h; OCI-Ly-7, day 3
Experimental: as §1, §2

[5] = test system: OCI-My-2; assay: In vitro cell proliferation assay (WST.1, Table 5); type: cell-based; settings: Homo sapiens, 72 h; OCI-My-2, day 3
Experimental: as §1, §2

[6] = test system: PC3; assay: In vitro cell proliferation assay (WST.1, Table 5); type: cell-based; settings: Homo sapiens, PC-3, 72 h; PC3, day 3
Experimental: as §1, §2

[7] = test system: SKW3; assay: In vitro cell proliferation assay (WST.1, Table 5); type: cell-based; settings: Homo sapiens, 72 h; SKW3, day 3
Experimental: as §1, §2

[8] = test system: LOX; assay: In vitro cell proliferation assay (WST.1, Table 5); type: cell-based, human; settings: day 3
Experimental: as §1, §2

[9] = test system: leukemias (OCI-AML-1, OCI-AML-2, SKW3), lymphomas (OCI-Ly-7), multiple myeloma (OCI-My-2); assay: In vitro cell proliferation assay (WST.1), summary over cell lines; type: cell-based; settings: Homo sapiens; OCI-AML-1, OCI-AML-2, SKW3, OCI-Ly-7, OCI-My-2; read-out: IC50 values, range over cell lines
Experimental: as §1, §2

[10] = target: T1, Hs ODCase (Homo sapiens, UniProt P11172); assay: Reversible (competitive) inhibition of ODCase, calorimetric assay; type: biochemical; settings: 37° C., 60 nM enzyme
T1 construct: ODCase region of human UMP synthase
Experimental: The stock solution of enzyme (60 μM) was prepared in 50 mM Tris (pH 7.5), 20 mM DTT, and 40 mM NaCl and incubated overnight at 4° C. This stock sample was later used to prepare the enzyme assay samples. The enzyme was kept on ice during the experiment. The enzyme stock was diluted with 50 mM Tris buffer containing 1 mM DTT to prepare 60 nM enzyme assay samples. The final substrate concentration was 15 or 20 μM. Concentrated samples of inhibitors were prepared in 50 mM Tris (pH 7.5). The volumes and concentrations of the enzyme and substrate were the same as described above for the reaction without inhibitor. All three compounds were tested in a competitive inhibition assay where enzyme is mixed with the inhibitor and the reaction is initiated by the substrate addition. Assay samples were prepared in 50 mM Tris, 1 mM DTT. The final assay concentration of 5-F-6-azido-UMP was 0, 0.25, 0.50, 0.75, 1.0 μM. The assay samples were prepared with 0, 0.2, 0.4, 1.0, and 2.0 μM and 0, 50, 100, 250, 500 μM 5-fluoro-6-ethyl-UMP.
The initial data analyses were done in Origin 7.0 software. The raw data representing the heat change over time were converted to the reaction rate at each recorded time point. A Michaelis-Menten plot was constructed and the data were fitted to MM equation (Eq. 1) to determine the kinetic parameters KM and kcat. The molar enthalpy (ΔH) was also automatically calculated.
To calculate the Ki the data were exported to GraFit 5.0 program. The data points were fitted to the competitive inhibition equation (Eq. 2) and the Ki was estimated from the Dixon plot.

[11] = target: Mt ODCase (Methanothermobacter thermautotrophicus, UniProt O26232); assay: biochemical; design: species or system M. thermoautotrophicum; settings: reversible inhibition, 20 nM enzyme, 40 μM OMP
[12] = test system: CCD967; assay: In vitro cell proliferation assay (WST.1, Table 5); type: cell-based; settings: Homo sapiens, CCD-967, 72 h; CCD967 normal skin line, day 3
Experimental: as §1, §2

[13] = test system: COLO205; assay: In vitro cell proliferation assay (WST.1, Table 5); type: cell-based; settings: Homo sapiens, COLO 205, 72 h; COLO205, day 3
Experimental: as §1, §2

[14] = test system: HS58T; assay: In vitro cell proliferation assay (WST.1, Table 5); type: cell-based; settings: Homo sapiens, 72 h, day 3
Experimental: as §1, §2

[15] = test system: OCI-AML-2; assay: In vitro cell proliferation assay (WST.1, Table 5); type: cell-based; settings: Homo sapiens, OCI-AML2, 72 h; OCI-AML-2, day 3
Experimental: as §1, §2

[16] = test system: OCVR4; assay: In vitro cell proliferation assay (WST.1, Table 5); type: cell-based; settings: Homo sapiens, 72 h; OCVR4, day 3
Experimental: as §1, §2

[17] = test system: SNB19; assay: In vitro cell proliferation assay (WST.1, Table 5); type: cell-based; settings: Homo sapiens, SNB-19, 72 h; SNB19, day 3
Experimental: as §1, §2

[18] = test system: T47D; assay: In vitro cell proliferation assay (WST.1, Table 5); type: cell-based; settings: Homo sapiens, 72 h, day 3
Experimental: as §1, §2

[19] = test system: OCI-AML-1; assay: Apoptosis assay (Annexin V/PI, FACS); type: cell-based, human; settings: OCI-AML-1, 4 μM
Experimental: (§3) Cells were seeded in duplicate at 10^5 cells/ml in 24-well plates. 4 μM final concentration of compounds Io, In or Iag (Table 2) were added immediately after seeding. Water was added to the control wells. Every 24 hr, cells were harvested, washed in PBS, and stained with Annexin V/propidium iodide (PI) (1:200) using Annexin-V-FLUOS staining kit (Roche) according to the manufacturer's instructions. Annexin V is a Ca^2+− dependent phospholipids-binding protein with high affinity for phosphatidylserine (PS). It can be used as a probe to detect PS exposure on the outer leaflet of the cell membrane and is therefore widely used for detection of apoptotic cells. Unlike apoptotic cells (Annexin V^+/PI^−), necrotic cells are Annexin V^+PI^+. PI is a DNA stain. FACS was used to analyze the staining.
(§4) To determine whether reduced expansion of different cell lines in culture with Io, In, and Iag could be attributed to a decrease in cell survival, we stained treated and control cells with Annexin V and PI. Four cell lines (OCI-AML-1, OCI-Ly7, OCI-My2, and SKW3) were cultured in presence of 4 μM of […] for 4 days. Cells were harvested daily and Annexin V/PI staining was done by FACS. Our results clearly show an increase in the percentage of apoptotic (annexin V^+PI^−) cells cultured with Io, In, or Iag compared to the control cells (Table 6). Increased cell death was first observed on day 2 of culture.

[20] = test system: OCI-Ly-7; assay: Apoptosis assay (Annexin V/PI, FACS); type: cell-based, human; settings: OCI-Ly-7, 4 μM
Experimental: as §3, §4

[21] = test system: OCI-My-2; assay: Apoptosis assay (Annexin V/PI, FACS); type: cell-based, human; settings: OCI-My-2, 4 μM
Experimental: as §3, §4

[22] = test system: SKW3; assay: Apoptosis assay (Annexin V/PI, FACS); type: cell-based, human; settings: SKW3, 4 μM
Experimental: as §3, §4

Row | IC50 [15] [µM] | SMILES | IC50 [1] [µM] | IC50 [2] [µM] | IC50 [3] [µM] | IC50 [4] [µM] | IC50 [5] [µM] | IC50 [6] [µM] | IC50 [7] [µM] | IC50 ([8]; Homo sapiens, 72 h) [µM] | IC50 [9] [µM] | Ki [10] [µM] | Ki [11] [µM] | IC50 [12] [µM] | IC50 [13] [µM] | IC50 [14] [µM] | IC50 [16] [µM] | IC50 [17] [µM] | IC50 [18] [µM] | Fold increase in % of apoptotic (annexinV+PI−) cells: drug-treated vs.control ([19]; day 1) [fold] | Fold increase in % of apoptotic (annexinV+PI−) cells: drug-treated vs.control ([19]; day 2) [fold] | also measured
1 | – | CCc1c(F)c(=O)[nH]c(=O)n1C1OC(CO)C(O)C1O (stereo not shown) [Iah] | 31.4 | 5.3 | 2.1 | 1.9 | 1.4 | > 100 | 1.2 | 4.5 | 0.3 to 2.1 | 0.353 ± 0.01 | 29 ± 0.3 | – | – | – | – | – | – | – | – | –
2 | – | O=c1[nH]c(=O)n([C@@H]2O[C@H](COP(=O)(O)O)[C@@H](O)[C@H]2O)cc1F [Compound 5-F-UMP, 5-F-UMP, reference compound] | – | – | – | – | – | – | – | – | – | 97.8 ± 5.9 | 646 ± 15 | – | – | – | – | – | – | – | – | –
3 | 0.9 | Nc1c(F)c(=O)[nH]c(=O)n1[C@@H]1O[C@H](CO)[C@@H](O)[C@H]1O [In, 5-Fluoro-6-amino uridine] | 1.4 | 2.6 | 0.7 | 1.3 | 0.9 | > 4 | 0.6 | 3.4 | 0.3 to 2.1 | 16.6 ± 0.7 | – | > 4 | 3.3 | > 4 | 2 | > 4 | > 4 | – | – | –
4 | 0.7 | O=Cc1c(F)c(=O)[nH]c(=O)n1C1OC(CO)C(O)C1O (stereo not shown) [Iag] | 23.7 | 1.9 | 0.3 | 0.6 | 0.4 | > 100 | 0.3 | 0.3 | 0.3 to 2.1 | – | – | – | – | – | – | – | – | 1.4 | 5.3 | IC50 [8]: 0.4 µM; Fold increase in % of apoptotic (annexinV+PI−) cells: drug-treated vs.control ([19]; day 3): 14 fold; Fold increase in % of apoptotic (annexinV+PI−) cells: drug-treated vs.control ([20]; day 1): 0.82 fold; Fold increase in % of apoptotic (annexinV+PI−) cells: drug-treated vs.control ([20]; day 2): 2.1 fold; Fold increase in % of apoptotic (annexinV+PI−) cells: drug-treated vs.control ([20]; day 3): 6.2 fold; Fold increase in % of apoptotic (annexinV+PI−) cells: drug-treated vs.control ([21]; day 1): 0.77 fold; Fold increase in % of apoptotic (annexinV+PI−) cells: drug-treated vs.control ([21]; day 2): 1.7 fold; Fold increase in % of apoptotic (annexinV+PI−) cells: drug-treated vs.control ([21]; day 3): 2.7 fold; Fold increase in % of apoptotic (annexinV+PI−) cells: drug-treated vs.control ([22]; day 1): 1.2 fold; Fold increase in % of apoptotic (annexinV+PI−) cells: drug-treated vs.control ([22]; day 2): 4.6 fold; Fold increase in % of apoptotic (annexinV+PI−) cells: drug-treated vs.control ([22]; day 3): 5.2 fold

Row | SMILES | IC50 [15] [µM] | IC50 [1] [µM] | IC50 [2] [µM] | IC50 [3] [µM] | IC50 [4] [µM] | IC50 [5] [µM] | IC50 [6] [µM] | IC50 [7] [µM] | IC50 ([8]; Homo sapiens, 72 h) [µM] | IC50 [9] [µM] | Ki [10] [µM] | Ki [11] [µM] | IC50 [12] [µM] | IC50 [13] [µM] | IC50 [14] [µM] | IC50 [16] [µM] | IC50 [17] [µM] | IC50 [18] [µM] | Fold increase in % of apoptotic (annexinV+PI−) cells: drug-treated vs.control ([19]; day 1) [fold] | Fold increase in % of apoptotic (annexinV+PI−) cells: drug-treated vs.control ([19]; day 2) [fold] | also measured
5 | [N-]=[N+]=Nc1c(F)c(=O)[nH]c(=O)n1[C@@H]1O[C@H](CO)[C@@H](O)[C@H]1O [Io, 5-fluoro-6-azido uridine] | 0.7 | 1 | 1.8 | 0.6 | 0.7 | 0.6 | > 4 | 0.4 | 2.3 | 0.3 to 2.1 | – | 0.357 ± 0.028 | > 4 | 3.8 | > 4 | 1.5 | > 4 | > 4 | 1.5 | 9.3 | Fold increase in % of apoptotic (annexinV+PI−) cells: drug-treated vs.control ([19]; day 3): 16 fold; Fold increase in % of apoptotic (annexinV+PI−) cells: drug-treated vs.control ([20]; day 1): 0.74 fold; Fold increase in % of apoptotic (annexinV+PI−) cells: drug-treated vs.control ([20]; day 2): 1.9 fold; Fold increase in % of apoptotic (annexinV+PI−) cells: drug-treated vs.control ([20]; day 3): 6.6 fold; Fold increase in % of apoptotic (annexinV+PI−) cells: drug-treated vs.control ([21]; day 1): 0.86 fold; Fold increase in % of apoptotic (annexinV+PI−) cells: drug-treated vs.control ([21]; day 2): 1.9 fold; Fold increase in % of apoptotic (annexinV+PI−) cells: drug-treated vs.control ([21]; day 3): 2.8 fold; Fold increase in % of apoptotic (annexinV+PI−) cells: drug-treated vs.control ([22]; day 1): 1.2 fold; Fold increase in % of apoptotic (annexinV+PI−) cells: drug-treated vs.control ([22]; day 2): 4.7 fold; Fold increase in % of apoptotic (annexinV+PI−) cells: drug-treated vs.control ([22]; day 3): 4.4 fold

Source: US20100056468A1, “Pyrimidine Derivatives As Anticancer Agents” (University Health Network, priority 2007, published 2010)
